Patent US20090298895A1, “USE OF THIOPROLINE IN BODY WEIGHT REDUCTION TREATMENTS” (Universidad De Cadiz, priority 2006, published 2009)

What was measured:
Type in all cases: in vivo
CD-1 Swiss/UCàdiz mice [1] = assay: Average daily food intake ad libitum; conditions: diet with 2.0 g l-thioproline/kg of food
Protocol: To study the effect of thioproline, particularly of l-thioproline, on feeding behavior, CD-1 Swiss/UCàdiz mice bred in the Animal Experimentation department of the Universidad de Càdiz were used. The mice were stabled in groups of 5 animals at 22±2° C. with 12 h/12 h of light/dark cycles and with free access, ad libitum, to food and water. The control group received standard laboratory animal food (A04 diet, Panlab LS, Barcelona, Spain), whereas the l-thioproline-supplemented mice received the same food as the mice in the control group, but supplemented with 2.0 g of l-thioproline (Sigma Aldrich)/kg of food from 28 weeks of age and until the end of their lives. The food was weighed daily. The mice were weighed weekly, and it was periodically controlled that the animals were pathogen-free.

CD-1 Swiss/UCàdiz mice [2] = assay: Neurological tests (tightrope test and T maze test); conditions: once a week, FIG. 2A, 2B
Excerpt: The animals of Example 1 were subjected to two tests once a week to evaluate neurological capacities, specifically to the tightrope test and the T maze test. The assayed animals were the animals mentioned in Example 1, i.e. the group of control mice and the group of mice with an l-thioproline-supplemented diet according to the treatment described in the Example 1. This test allows evaluating neuromuscular coordination. The mice were suspended in the center of a 60 cm wide tightrope and the time it took them to reach one of the columns located at the end of the rope was measured. The test was considered positive when the animal reached one of the ends in less than 60 seconds. This test measures spontaneous cognitive neurological activity. The mice were placed in a T maze with 50 cm arms, and the test was considered successful when the mice reached the intersection in less than 60 seconds.

CD-1 Swiss/UCàdiz mice [3] = assay: Body weight of mice on l-thioproline-supplemented diet; design: Variation: percentage reduction in weight between supplemented mice and control mice: concentration or dose not given beside the values; conditions: for Average weight: average ± SEM
Excerpt: To study the effect of thioproline, particularly of l-thioproline, on feeding behavior, CD-1 Swiss/UCàdiz mice bred in the Animal Experimentation department of the Universidad de Càdiz were used.
(§1) The mice strain used in this study, CD-1 Swiss/UCàdiz, is a type of mice with accelerated senescence similar to the AKR, SAM, NZB/Lac, and SJL/J mice having a mean life span of 36-57 weeks and a maximum life expectancy of 52-83 weeks. These mice have been used in the Universidad de Càdiz in several survival studies (Navarro A, Gomez C, Sanchez-Pino M J, Gonzalez H. Bandez M J, Boveris A D and Boveris A. Vitamin E at high doses improves survival, neurological performance, and brain mitochondrial function in aging male mice. Am J Physiol Regul Integr Comp Physiol 289: R1392-R1399, 2005; Navarro A, Gomez C, Lopez-Cepero J M and Boveris A. Beneficial effects of moderate exercise on mice aging: survival, behavior, oxidative stress, and mitochondrial electron transfer. Am J Physiol Regul Integr Comp Physiol 286: R505-R511, 2004; Navarro A, Sanchez Del Pino M J, Gomez C, Peralta J L and Boveris A. Behavioral dysfunction, brain oxidative stress, and impaired mitochondrial electron transfer in aging mice. Am J Physiol Regul Integr Comp Physiol 282: R985-R992, 2002).
The mice were stabled in groups of 5 animals at 22±2° C. with 12 h/12 h of light/dark cycles and with free access, ad libitum, to food and water.
(§2) The control group received standard laboratory animal food (A04 diet, Panlab LS, Barcelona, Spain), whereas the l-thioproline-supplemented mice received the same food as the mice in the control group, but supplemented with 2.0 g of l-thioproline (Sigma Aldrich)/kg of food from 28 weeks of age and until the end of their lives.
The food was weighed daily. The mice were weighed weekly, and it was periodically controlled that the animals were pathogen-free.

CD-1 Swiss/UCàdiz mice [4] = assay: Survival of thioproline-supplemented mice; conditions: for Mean life span / Maximum life expectancy: supplemented mice n=70; for Mean life span: control 62±4 weeks; for Maximum life expectancy: control 118±4 weeks
Excerpt: as §1, §2
The date on which each mouse died (Example 1) was controlled to be able to obtain the survival curves.

## O=C(O)C1CSCN1 (stereo not drawn) [l-thioproline, thiazolidine-4-carboxylic acid]
CD-1 Swiss/UCàdiz mice [1]
  Spontaneous reduction of the intake versus control mice: approximately 20%
CD-1 Swiss/UCàdiz mice [1]; control 6.3±0.03 g/day
  Average daily intake ad libitum: 5.1 ± 0.03 g/day
CD-1 Swiss/UCàdiz mice [2]
  Improvement in the neurological tests compared to control group: 17-39%
CD-1 Swiss/UCàdiz mice [3]; after 12 weeks of l-thioproline-supplemented diet, FIG. 1
  Weight increase versus control group: smaller weight increase than the increase observed in the control group
CD-1 Swiss/UCàdiz mice [3]; age 28 weeks
  Variation: percentage reduction in weight between supplemented mice and control mice: 2.06%
CD-1 Swiss/UCàdiz mice [3]; age 28 weeks (start of supplementation), diet with 2.0 g l-thioproline/kg of food
  Average weight: 42.7 ± 0.4 g
CD-1 Swiss/UCàdiz mice [3]; age 52 weeks
  Variation: percentage reduction in weight between supplemented mice and control mice: 4.45%
CD-1 Swiss/UCàdiz mice [3]; age 52 weeks, diet with 2.0 g l-thioproline/kg of food from 28 weeks of age
  Average weight: 47.2 ± 0.4 g
CD-1 Swiss/UCàdiz mice [3]; age 78 weeks
  Variation: percentage reduction in weight between supplemented mice and control mice: 11.65%
CD-1 Swiss/UCàdiz mice [3]; age 78 weeks, diet with 2.0 g l-thioproline/kg of food from 28 weeks of age
  Average weight: 48.5 ± 0.5 g
CD-1 Swiss/UCàdiz mice [3]; age 100 weeks
  Variation: percentage reduction in weight between supplemented mice and control mice: 10.18%
CD-1 Swiss/UCàdiz mice [3]; age 100 weeks, diet with 2.0 g l-thioproline/kg of food from 28 weeks of age
  Average weight: 49.4 ± 0.5 g
CD-1 Swiss/UCàdiz mice [4]; from 62 weeks to 80 weeks
  Prolongation of mean life span versus control: approximately 29%
CD-1 Swiss/UCàdiz mice [4]; from 118 weeks to 145 weeks
  Prolongation of maximum life versus control: approximately 23%
CD-1 Swiss/UCàdiz mice [4]
  Mean life span: 80 weeks
  Maximum life expectancy: 145 weeks
CD-1 Swiss/UCàdiz mice [4]; listed as thioproline
  Mean life span: 80±3 weeks
  Maximum life expectancy: 145±3 weeks
